The source of these data is patent US20110201558A1, “Anaplerotic Therapy for Alzheimer's Disease and the Aging Brain” (Baylor Research Institute, priority 2009, published 2011).

Data set [1] deals with mouse brain. The settings on record: infusion of propionyl-CoA precursors; compared with heptanoate, BKP, or propionate; cited from earlier work.
Data set [2] relates to patients with inherited disorders of fat and glycogen metabolism as well as pyruvate carboxylase deficiency. The settings on record: cited from earlier work.
On the set-up of data set [3]: species or system human. The settings on record: in vivo. An excerpt: For example, when using C7 as the source of odd-chain fatty acids these can be provided in the form of a triglyceride, e.g., tri-heptanoin. The triglyceride triheptanoin is provided in a concentration sufficient to provide a beneficial effect is most useful in this aspect of the present invention. The seven-carbon fatty acid may be provided, e.g.:
Goals have been set using 4 g/kg (within ideal body weight (IBW) range) for infants, children, and some adolescents. Goals have been set using 2 g/kg (within IBW range) for adolescents. Goals have been set using 2 g/kg (within IBW range) for adults; but toleration is 1-1.2 g per kg (which is 35% kcal of estimated needs).

Structures are written as SMILES.

As for `CCCCC(=O)O` [pentanoate], in data set [1], the “anaplerosis (stimulation of the CAC and energy production) in mouse brain” value is on record as “superior”.
As for `CCCCCCC(=O)OCC(COC(=O)CCCCCC)OC(=O)CCCCCC` [triheptanoin], the “indirect measures of energy metabolism in the brain and peripheral organs such as muscle and heart” value in data set [2] is “positive effects”. Besides, in data set [3], the toleration is on record as 1-1.2 g per kg.
